The experiment concerns the target T1, hM5 (Homo sapiens, UniProt P08912).
T1 construct: expressed in transfected cells
T1 sequence (P08912 1-532): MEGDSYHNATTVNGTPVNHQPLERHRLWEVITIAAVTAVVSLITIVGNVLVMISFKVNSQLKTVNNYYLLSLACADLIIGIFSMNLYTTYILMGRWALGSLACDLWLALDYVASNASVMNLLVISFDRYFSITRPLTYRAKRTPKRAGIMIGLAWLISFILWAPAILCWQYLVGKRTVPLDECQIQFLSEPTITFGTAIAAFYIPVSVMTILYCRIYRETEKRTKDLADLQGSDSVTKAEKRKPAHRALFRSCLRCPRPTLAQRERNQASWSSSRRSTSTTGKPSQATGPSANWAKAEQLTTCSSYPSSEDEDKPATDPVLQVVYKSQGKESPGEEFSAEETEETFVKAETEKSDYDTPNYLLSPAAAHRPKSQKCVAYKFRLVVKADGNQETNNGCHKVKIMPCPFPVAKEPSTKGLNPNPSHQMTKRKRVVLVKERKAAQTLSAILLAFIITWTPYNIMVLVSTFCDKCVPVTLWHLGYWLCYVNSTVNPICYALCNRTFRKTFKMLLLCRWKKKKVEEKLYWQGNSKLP
The experiment in a line: Calcium mobilization concentration-response (IC50 vs EC80 acetylcholine), CHO hM5. The experiment is classed as cell-based. The settings on record: CELL LINE hM5, read-out: IC50. Put shortly: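 IC50 values derive from percent maximal acetylcholine response after an EC80 ACh addition, measured as kinetic calcium fluorescence (static ratio, max−min). Test compounds were added 140 s before agonist. Cells: stable hM5-CHO in HEPES-buffered HBSS with 2.5 mM probenecid, pH 7.4; ≥3 independent triplicate determinations.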
Background: A change in cytosolic calcium serves as a functional read-out for many receptors and channels.

[1] abbreviates: calcium mobilization, EC80 acetylcholine addition.

Like-named read-outs stand apart in the source and are kept apart here.

Consider `Cc1c(S(=O)(=O)N2CCC(c3cn4ncnc4cc3C(F)(F)F)CC2)c(Cl)nn1C` [Compound 341, 6-(1-((3-chloro-1,5-dimethyl-1H-pyrazol-4-yl)sulfonyl)piperidin-4-yl)-7-(trifluoromethyl)-[1,2,4]triazolo[1,5-a]pyridine], for which the IC50 – broadly, the concentration that gives 50% inhibition – under setting [1] is 113 nM.

For the compound `Cc1c(C2CCN(S(=O)(=O)c3cnn(C)c3C)CC2)cn2ncnc2c1F` [Compound 264, 6-(1-((1,5-dimethyl-1H-pyrazol-4-yl)sulfonyl)piperidin-4-yl)-8-fluoro-7-methyl-[1,2,4]triazolo[1,5-a]pyridine], under setting [1], the IC50 worked out at 21 nM. Same read-out and setting: the figure for `Cc1nn(C)cc1S(=O)(=O)N1CCC(c2cn3ncnc3cc2C(F)(F)F)CC1` [Compound 113, 6-(1-((1,3-dimethyl-1H-pyrazol-4-yl)sulfonyl)piperidin-4-yl)-7-(trifluoromethyl)-[1,2,4]triazolo[1,5-a]pyridine] is 2400 nM; for `O=S(=O)(c1ccc2ncccc2c1)N1CCC(c2cc3[nH]ncc3cn2)CC1` [Compound 20, 6-((4-(1H-pyrazolo[4,3-c]pyridin-6-yl)piperidin-1-yl)sulfonyl)quinoline] it is over 10000 nM. On to `CCc1cc2ncnn2cc1C1CCN(S(=O)(=O)c2cnn(C)c2C#N)CC1` [Compound 407, 4-((4-(7-ethyl-[1,2,4]triazolo[1,5-a]pyridin-6-yl)piperidin-1-yl)sulfonyl)-1-methyl-1H-pyrazole-5-carbonitrile], for which the IC50 (vs EC80 acetylcholine) came out at 148 nM.

For the compound `Cc1cc2ncnn2cc1C1(O)CCN(S(=O)(=O)c2cnn(C)c2C)CC1` [Compound 308, 1-((1,5-Dimethyl-1H-pyrazol-4-yl)sulfonyl)-4-(7-methyl-[1,2,4]triazolo[1,5-a]pyridin-6-yl)piperidin-4-ol], under setting [1], the IC50 was over 10000 nM. The same measure, in the same setting: the figure for `[2H]C([2H])([2H])n1cc(S(=O)(=O)N2CCC(c3cn4ncnc4cc3F)CC2)c(Cl)n1` [Compound 259, 6-(1-((3-chloro-1-(methyl-d3)-1H-pyrazol-4-yl)sulfonyl)piperidin-4-yl)-7-fluoro-[1,2,4]triazolo[1,5-a]pyridine] is 3000 nM.

Turning to `Cn1ncc(S(=O)(=O)N2CCC(c3cn4ncnc4cc3Cl)CC2)c1C(F)(F)F` [Compound 330, 7-chloro-6-(1-((1-methyl-5-(trifluoromethyl)-1H-pyrazol-4-yl)sulfonyl)piperidin-4-yl)-[1,2,4]triazolo[1,5-a]pyridine], the IC50 under setting [1] amounted to 52 nM. As to `Cc1cc(F)c(F)cc1C1=CCN(S(=O)(=O)c2cnn(C)c2C)CC1` [Compound 404, 4-(4,5-difluoro-2-methylphenyl)-1-((1,5-dimethyl-1H-pyrazol-4-yl)sulfonyl)-1,2,3,6-tetrahydropyridine], the IC50 (vs EC80 acetylcholine) was found to be 1540 nM. In the case of `[2H]C1([2H])Oc2cc(C)c(C3CCN(S(=O)(=O)c4cnn5c4OCCC5)CC3)cc2OC1([2H])[2H]` [Compound 393, 3-((4-(7-methyl-2,3-dihydrobenzo[b][1,4]dioxin-6-yl-2,2,3,3-d4)piperidin-1-yl)sulfonyl)-6,7-dihydro-5H-pyrazolo[5,1-b][1,3]oxazine], under setting [1], the IC50 amounted to 86 nM.

On to `CCc1cc2ncnn2cc1C1=CCN(S(=O)(=O)c2cnn(C)c2C)CC1` [Compound 194, 6-(1-((1,5-dimethyl-1H-pyrazol-4-yl)sulfonyl)-1,2,3,6-tetrahydropyridin-4-yl)-7-ethyl-[1,2,4]triazolo[1,5-a]pyridine], for which the IC50 under setting [1] was 55 nM. On to `Cc1c(C2CCN(S(=O)(=O)c3ccc4c(c3)CCO4)CC2)cn2ncnc2c1F` [Compound 267, 6-(1-((2,3-dihydrobenzofuran-5-yl)sulfonyl)piperidin-4-yl)-8-fluoro-7-methyl-[1,2,4]triazolo[1,5-a]pyridine], for which the IC50 under setting [1] is 208 nM. `Cc1cc2ncnn2cc1C1CCN(S(=O)(=O)c2c(F)cc3c(c2F)C(C)CO3)CC1` (stereo not shown) [Compound 116, 6-(1-((4,6-difluoro-3-methyl-2,3-dihydrobenzofuran-5-yl)sulfonyl)piperidin-4-yl)-7-methyl-[1,2,4]triazolo[1,5-a]pyridine]: the IC50 under setting [1] was 205 nM. In the case of `Cc1nc2cc(C)c(C3CCN(S(=O)(=O)c4cc5c(cc4F)OCC5)CC3)cn2n1` [Compound 77, 6-(1-((6-fluoro-2,3-dihydrobenzofuran-5-yl)sulfonyl)piperidin-4-yl)-2,7-dimethyl-[1,2,4]triazolo[1,5-a]pyridine], the IC50 under setting [1] is over 10000 nM. With `Cc1nnc(S(=O)(=O)N2CCC(c3cn4ncnc4cc3Cl)CC2)o1` [Compound 607], the IC50 (vs EC80 acetylcholine) turned out to be 151 nM. Turning to `O=S(=O)(c1cnn2c1CCC2)N1CC=C(c2cn3ncnc3cc2Cl)CC1` [Compound 196, 7-chloro-6-(1-((5,6-dihydro-4H-pyrrolo[1,2-b]pyrazol-3-yl)sulfonyl)-1,2,3,6-tetrahydropyridin-4-yl)-[1,2,4]triazolo[1,5-a]pyridine], under setting [1], the half-maximal inhibitory concentration (IC50) was found to be 6.1 nM. As for `Cn1ncc(S(=O)(=O)N2CC=C(c3c4ccccc4nn3C)CC2)c1Cl` [Compound 489, 3-(1-((5-chloro-1-methyl-1H-pyrazol-4-yl)sulfonyl)-1,2,3,6-tetrahydropyridin-4-yl)-2-methyl-2H-indazole], for the setting “vs EC80 acetylcholine”, the IC50 is 1290 nM. For the compound `[2H]C([2H])([2H])n1cc(S(=O)(=O)N2CCC(c3cn4ncnc4cc3C)CC2)c(Cl)n1` [Compound 256, 6-(1-((3-chloro-1-(methyl-d3)-1H-pyrazol-4-yl)sulfonyl)piperidin-4-yl)-7-methyl-[1,2,4]triazolo[1,5-a]pyridine], the IC50 under setting [1] worked out at 53 nM. With `Cc1cc2ccnn2cc1C1CCN(S(=O)(=O)c2cnn(C)c2C#N)CC1` [Compound 481, 1-methyl-4-((4-(5-methylpyrazolo[1,5-a]pyridin-6-yl)piperidin-1-yl)sulfonyl)-1-pyrazole-5-carbonitrile], where the note is “vs EC80 acetylcholine”, the IC50 was 303 nM. Regarding `O=S(=O)(c1cc2c(cc1F)OCC2)N1CCC(c2cn3ncnc3cc2C(F)(F)F)CC1` [Compound 110, 6-(1-((6-fluoro-2,3-dihydrobenzofuran-5-yl)sulfonyl)piperidin-4-yl)-7-(trifluoromethyl)-[1,2,4]triazolo[1,5-a]pyridine], the IC50 under setting [1] came out at 2100 nM. For `Cc1c(C2CCN(S(=O)(=O)c3cnc4ccccn34)CC2)cn2ncnc2c1F` [Compound 348, 8-fluoro-6-(1-(imidazo[1,2-a]pyridin-3-ylsulfonyl)piperidin-4-yl)-7-methyl-[1,2,4]triazolo[1,5-a]pyridine], the IC50 under setting [1] amounted to 50 nM. With `Cc1cc(S(=O)(=O)N2CCC(c3nn4ncnc4cc3C)CC2)sn1` [Compound 487, 3-methyl-5-((4-(7-methyl-[1,2,4]triazolo[1,5-b]pyridazin-6-yl)piperidin-1-yl)sulfonyl)isothiazole], the half-inhibitory concentration (IC50) (vs EC80 acetylcholine) is 343 nM.

Consider `Cc1cc2nccn2nc1C1CCN(S(=O)(=O)c2ccc3ncccc3c2)CC1` [Compound 39, 6-((4-(7-methylimidazo[1,2-b]pyridazin-6-yl)piperidin-1-yl)sulfonyl)quinoline], for which the IC50 under setting [1] was over 10000 nM. As for `Cn1ncc(S(=O)(=O)N2CCC(c3cc(-c4ccco4)n[nH]3)CC2)c1Cl` [Compound 587], for the setting “vs EC80 acetylcholine”, the IC50 turned out to be 1460 nM. With `Cc1sc(C(N)=O)nc1C1=CCN(S(=O)(=O)c2ccc3c(c2)CCO3)CC1` [Compound 203, 4-(1-((2,3-dihydrobenzofuran-5-yl)sulfonyl)-1,2,3,6-tetrahydropyridin-4-yl)-5-methylthiazole-2-carboxamide], the IC50 under setting [1] was over 10000 nM. For the compound `Cc1cc(C(F)(F)F)ncc1C1CCN(S(=O)(=O)c2cnc(C)n2C)CC1` [Compound 396, 5(1-((1,2-dimethyl-1H-imidazol-5-yl)sulfonyl)piperidin-4-yl)-4-methyl-2-(trifluoromethyl)pyridine], the IC50 (vs EC80 acetylcholine) is over 10000 nM. As to `Cc1cc2ncnn2cc1C1CCN(S(=O)(=O)c2c(C)nn(C)c2C(F)(F)F)C(C)C1` (stereo not shown) [Compound 362, 6-(1-((1,3-dimethyl-5-(trifluoromethyl)-1H-pyrazol-4-yl)sulfonyl)-2-methylpiperidin-4-yl)-7-methyl-[1,2,4]triazolo[1,5-a]pyridine], the IC50 under setting [1] is over 10000 nM.

Consider `Cc1nc(C(F)(F)F)c(S(=O)(=O)N2CCC(c3cn4ncnc4cc3C)CC2)s1` [Compound 129, 2-methyl-5-((4-(7-methyl-[1,2,4]triazolo[1,5-a]pyridin-6-yl)piperidin-1-yl)sulfonyl)-4-(trifluoromethyl)thiazole], for which the IC50 under setting [1] was 3800 nM. With `Cc1cc2ncnn2cc1C1(F)CCN(S(=O)(=O)c2cnn3cccnc23)CC1` [Compound 458, 6-(4-fluoro-1-(pyrazolo[1,5-a]pyrimidin-3-ylsulfonyl)piperidin-4-yl)-7-methyl-[1,2,4]triazolo[1,5-a]pyridine], for the setting “vs EC80 acetylcholine”, the IC50 came out at 754 nM.

With `O=S(=O)(c1cnn2c1CCC2)N1CC=C(c2cc3ncnn3cc2Cl)CC1` [Compound 195, 6-chloro-7-(1-((5,6-dihydro-4H-pyrrolo[1,2-b]pyrazol-3-yl)sulfonyl)-1,2,3,6-tetrahydropyridin-4-yl)-[1,2,4]triazolo[1,5-a]pyridine], the IC50 under setting [1] was found to be 65 nM.

As to `Cc1cc2nccn2cc1C1CCN(S(=O)(=O)c2ccc(Cl)nc2)CC1` [Compound 70, 6-(1-((6-chloropyridin-3-yl)sulfonyl)piperidin-4-yl)-7-methylimidazo[1,2-a]pyridine], the IC50 under setting [1] was over 10000 nM.

(Values after patent US20230183237A1, “COMPETITIVE AND NONCOMPETITIVE INHIBITORS OF THE MUSCARINIC ACETYLCHOLINE RECEPTOR M5” (Vanderbilt University, priority 2020, published 2023).)
